Reference: US20240415914A1, “Water Dispersible Cannabinoid Compositions” (priority 2021, published 2024)
Like-named read-outs stand apart in the source and are kept apart here.

What was measured:
[1] = type: physicochemical; details: for Stability in Powder Concentrate (content by LCMSMS): stored at room temperature (21-25° C.)
Method: At each time period, 0.05 g of powder was dissolved in 10 ml-15 of ethanol, diluted to fall within the analytical range, and injected into the LCMSMS for analysis.

[2] = Stability of cannabinoid and Vitamin E components of Beverage 2 (AB Red) stored at 8° C. and 21-25° C., LCMSMS over 570 days; details: for Chemical stability over the entire period (result in words): AB Red
Method: The LCMSMS was calibrated for 0-50 ng/ml cannabinoids with the same resin material used in the preparation of the concentrates. At each time period, 100 μml of beverage was diluted with 10 ml of methanol and injected into the LCMSMS for analysis.

## CCCCCc1cc(O)c2c(c1)OC(C)(C)[C@@H]1CCC(C)=C[C@@H]21 [D9 THC, delta-9-tetrahydrocannabinol, reference compound]
[1]; powder concentrate, room temperature (21-25° C.), 570 days
  Chemical stability over the entire period (result in words): no significant degradation
[1]; day 0
  Stability in Powder Concentrate (content by LCMSMS): 2.55 mg/g powder
[1]; day 1
  Stability in Powder Concentrate (content by LCMSMS): 2.55 mg/g powder
[1]; day 2
  Stability in Powder Concentrate (content by LCMSMS): 2.46 mg/g powder
[1]; day 3
  Stability in Powder Concentrate (content by LCMSMS): 2.63 mg/g powder
[1]; day 5
  Stability in Powder Concentrate (content by LCMSMS): 2.66 mg/g powder
[1]; day 8
  Stability in Powder Concentrate (content by LCMSMS): 2.49 mg/g powder
[1]; day 9
  Stability in Powder Concentrate (content by LCMSMS): 2.49 mg/g powder
[1]; day 10
  Stability in Powder Concentrate (content by LCMSMS): 2.60 mg/g powder
[1]; day 11
  Stability in Powder Concentrate (content by LCMSMS): 2.58 mg/g powder
[1]; day 12
  Stability in Powder Concentrate (content by LCMSMS): 2.65 mg/g powder
[1]; day 15
  Stability in Powder Concentrate (content by LCMSMS): 2.49 mg/g powder
[1]; day 16
  Stability in Powder Concentrate (content by LCMSMS): 2.54 mg/g powder
[1]; day 17
  Stability in Powder Concentrate (content by LCMSMS): 2.54 mg/g powder
[1]; day 18
  Stability in Powder Concentrate (content by LCMSMS): 2.55 mg/g powder
[1]; day 19
  Stability in Powder Concentrate (content by LCMSMS): 2.51 mg/g powder
[1]; day 22
  Stability in Powder Concentrate (content by LCMSMS): 2.46 mg/g powder
[1]; day 23
  Stability in Powder Concentrate (content by LCMSMS): 2.65 mg/g powder
[1]; day 24
  Stability in Powder Concentrate (content by LCMSMS): 2.60 mg/g powder
[1]; day 25
  Stability in Powder Concentrate (content by LCMSMS): 2.55 mg/g powder
[1]; day 26
  Stability in Powder Concentrate (content by LCMSMS): 2.52 mg/g powder
[1]; day 29
  Stability in Powder Concentrate (content by LCMSMS): 2.47 mg/g powder
[1]; day 30
  Stability in Powder Concentrate (content by LCMSMS): 2.66 mg/g powder
[1]; day 60
  Stability in Powder Concentrate (content by LCMSMS): 2.66 mg/g powder
[1]; day 90
  Stability in Powder Concentrate (content by LCMSMS): 2.49 mg/g powder
[1]; day 120
  Stability in Powder Concentrate (content by LCMSMS): 2.66 mg/g powder
[1]; day 150
  Stability in Powder Concentrate (content by LCMSMS): 2.61 mg/g powder
[1]; day 180
  Stability in Powder Concentrate (content by LCMSMS): 2.59 mg/g powder
[1]; day 210
  Stability in Powder Concentrate (content by LCMSMS): 2.54 mg/g powder
[1]; day 240
  Stability in Powder Concentrate (content by LCMSMS): 2.53 mg/g powder
[1]; day 270
  Stability in Powder Concentrate (content by LCMSMS): 2.47 mg/g powder
[1]; day 300
  Stability in Powder Concentrate (content by LCMSMS): 2.57 mg/g powder
[1]; day 330
  Stability in Powder Concentrate (content by LCMSMS): 2.49 mg/g powder
[1]; day 360
  Stability in Powder Concentrate (content by LCMSMS): 2.58 mg/g powder
[1]; day 390
  Stability in Powder Concentrate (content by LCMSMS): 2.48 mg/g powder
[1]; day 420
  Stability in Powder Concentrate (content by LCMSMS): 2.53 mg/g powder
[1]; day 450
  Stability in Powder Concentrate (content by LCMSMS): 2.61 mg/g powder
[1]; day 480
  Stability in Powder Concentrate (content by LCMSMS): 2.65 mg/g powder
[1]; day 510
  Stability in Powder Concentrate (content by LCMSMS): 2.64 mg/g powder
[1]; day 540
  Stability in Powder Concentrate (content by LCMSMS): 2.47 mg/g powder
[1]; day 570
  Stability in Powder Concentrate (content by LCMSMS): 2.64 mg/g powder
[2]; 8° C., 0 days
  Stability of Cannabinoids in AB Red: 12.9 µg/mL
[2]; 8° C., 1 days
  Stability of Cannabinoids in AB Red: 13.0 µg/mL
[2]; 8° C., 2 days
  Stability of Cannabinoids in AB Red: 13.0 µg/mL
[2]; 8° C., 3 days
  Stability of Cannabinoids in AB Red: 12.7 µg/mL
[2]; 8° C., 5 days
  Stability of Cannabinoids in AB Red: 13.0 µg/mL
[2]; 8° C., 8 days
  Stability of Cannabinoids in AB Red: 12.6 µg/mL
[2]; 8° C., 9 days
  Stability of Cannabinoids in AB Red: 12.7 µg/mL
[2]; 8° C., 10 days
  Stability of Cannabinoids in AB Red: 12.8 µg/mL
[2]; 8° C., 11 days
  Stability of Cannabinoids in AB Red: 12.8 µg/mL
[2]; 8° C., 12 days
  Stability of Cannabinoids in AB Red: 12.9 µg/mL
[2]; 8° C., 15 days
  Stability of Cannabinoids in AB Red: 12.9 µg/mL
[2]; 8° C., 16 days
  Stability of Cannabinoids in AB Red: 12.7 µg/mL
[2]; 8° C., 17 days
  Stability of Cannabinoids in AB Red: 12.6 µg/mL
[2]; 8° C., 18 days
  Stability of Cannabinoids in AB Red: 12.8 µg/mL
[2]; 8° C., 19 days
  Stability of Cannabinoids in AB Red: 12.7 µg/mL
[2]; 8° C., 22 days
  Stability of Cannabinoids in AB Red: 12.7 µg/mL
[2]; 8° C., 23 days
  Stability of Cannabinoids in AB Red: 12.9 µg/mL
[2]; 8° C., 24 days
  Stability of Cannabinoids in AB Red: 12.9 µg/mL
[2]; 8° C., 25 days
  Stability of Cannabinoids in AB Red: 12.9 µg/mL
[2]; 8° C., 26 days
  Stability of Cannabinoids in AB Red: 12.7 µg/mL
[2]; 8° C., 29 days
  Stability of Cannabinoids in AB Red: 12.7 µg/mL
[2]; 8° C., 30 days
  Stability of Cannabinoids in AB Red: 12.9 µg/mL
[2]; 8° C., 60 days
  Stability of Cannabinoids in AB Red: 12.5 µg/mL
[2]; 8° C., 90 days
  Stability of Cannabinoids in AB Red: 13.0 µg/mL
[2]; 8° C., 120 days
  Stability of Cannabinoids in AB Red: 12.4 µg/mL
[2]; 8° C., 150 days
  Stability of Cannabinoids in AB Red: 12.8 µg/mL
[2]; 8° C., 180 days
  Stability of Cannabinoids in AB Red: 12.6 µg/mL
[2]; 8° C., 210 days
  Stability of Cannabinoids in AB Red: 12.3 µg/mL
[2]; 8° C., 240 days
  Stability of Cannabinoids in AB Red: 12.4 µg/mL
[2]; 8° C., 270 days
  Stability of Cannabinoids in AB Red: 12.6 µg/mL
[2]; 8° C., 300 days
  Stability of Cannabinoids in AB Red: 12.4 µg/mL
[2]; 8° C., 330 days
  Stability of Cannabinoids in AB Red: 12.7 µg/mL
[2]; 8° C., 390 days
  Stability of Cannabinoids in AB Red: 12.4 µg/mL
[2]; 8° C., 420 days
  Stability of Cannabinoids in AB Red: 12.4 µg/mL
[2]; 8° C., 450 days
  Stability of Cannabinoids in AB Red: 12.4 µg/mL
[2]; 8° C., 480 days
  Stability of Cannabinoids in AB Red: 12.2 µg/mL
[2]; 8° C., 510 days
  Stability of Cannabinoids in AB Red: 12.0 µg/mL
[2]; 8° C., 540 days
  Stability of Cannabinoids in AB Red: 11.9 µg/mL
[2]; 8° C., 570 days
  Stability of Cannabinoids in AB Red: 11.8 µg/mL
[2]; 21-25° C., 0 days
  Stability of Cannabinoids in AB Red: 12.9 µg/mL
[2]; 21-25° C., 1 days
  Stability of Cannabinoids in AB Red: 13.0 µg/mL
[2]; 21-25° C., 2 days
  Stability of Cannabinoids in AB Red: 13.0 µg/mL
[2]; 21-25° C., 3 days
  Stability of Cannabinoids in AB Red: 12.6 µg/mL
[2]; 21-25° C., 5 days
  Stability of Cannabinoids in AB Red: 12.4 µg/mL
[2]; 21-25° C., 8 days
  Stability of Cannabinoids in AB Red: 12.7 µg/mL
[2]; 21-25° C., 9 days
  Stability of Cannabinoids in AB Red: 12.8 µg/mL
[2]; 21-25° C., 10 days
  Stability of Cannabinoids in AB Red: 12.5 µg/mL
[2]; 21-25° C., 11 days
  Stability of Cannabinoids in AB Red: 12.9 µg/mL
[2]; 21-25° C., 12 days
  Stability of Cannabinoids in AB Red: 13.0 µg/mL
[2]; 21-25° C., 15 days
  Stability of Cannabinoids in AB Red: 12.7 µg/mL
[2]; 21-25° C., 16 days
  Stability of Cannabinoids in AB Red: 12.4 µg/mL
[2]; 21-25° C., 17 days
  Stability of Cannabinoids in AB Red: 12.9 µg/mL
[2]; 21-25° C., 18 days
  Stability of Cannabinoids in AB Red: 12.8 µg/mL
[2]; 21-25° C., 19 days
  Stability of Cannabinoids in AB Red: 12.8 µg/mL
[2]; 21-25° C., 22 days
  Stability of Cannabinoids in AB Red: 12.9 µg/mL
[2]; 21-25° C., 23 days
  Stability of Cannabinoids in AB Red: 12.9 µg/mL
[2]; 21-25° C., 24 days
  Stability of Cannabinoids in AB Red: 12.5 µg/mL
[2]; 21-25° C., 25 days
  Stability of Cannabinoids in AB Red: 12.5 µg/mL
[2]; 21-25° C., 26 days
  Stability of Cannabinoids in AB Red: 12.4 µg/mL
[2]; 21-25° C., 29 days
  Stability of Cannabinoids in AB Red: 12.7 µg/mL
[2]; 21-25° C., 30 days
  Stability of Cannabinoids in AB Red: 12.4 µg/mL
[2]; 21-25° C., 60 days
  Stability of Cannabinoids in AB Red: 12.2 µg/mL
[2]; 21-25° C., 90 days
  Stability of Cannabinoids in AB Red: 12.8 µg/mL
[2]; 21-25° C., 120 days
  Stability of Cannabinoids in AB Red: 12.4 µg/mL
[2]; 21-25° C., 150 days
  Stability of Cannabinoids in AB Red: 12.4 µg/mL
[2]; 21-25° C., 180 days
  Stability of Cannabinoids in AB Red: 12.8 µg/mL
[2]; 21-25° C., 210 days
  Stability of Cannabinoids in AB Red: 12.4 µg/mL
[2]; 21-25° C., 240 days
  Stability of Cannabinoids in AB Red: 12.5 µg/mL
[2]; 21-25° C., 270 days
  Stability of Cannabinoids in AB Red: 12.5 µg/mL
[2]; 21-25° C., 300 days
  Stability of Cannabinoids in AB Red: 12.4 µg/mL
[2]; 21-25° C., 330 days
  Stability of Cannabinoids in AB Red: 12.1 µg/mL
[2]; 21-25° C., 390 days
  Stability of Cannabinoids in AB Red: 12.1 µg/mL
[2]; 21-25° C., 420 days
  Stability of Cannabinoids in AB Red: 12.2 µg/mL
[2]; 21-25° C., 450 days
  Stability of Cannabinoids in AB Red: 12.2 µg/mL
[2]; 21-25° C., 480 days
  Stability of Cannabinoids in AB Red: 11.8 µg/mL
[2]; 21-25° C., 510 days
  Stability of Cannabinoids in AB Red: 12.3 µg/mL
[2]; 21-25° C., 540 days
  Stability of Cannabinoids in AB Red: 12.2 µg/mL
[2]; 21-25° C., 570 days
  Stability of Cannabinoids in AB Red: 11.8 µg/mL
[2]; stored at 8° C., 570 days
  Chemical stability over the entire period (result in words): high degree of stability
[2]; stored at 21-25° C., 570 days
  Chemical stability over the entire period (result in words): high degree of stability
